{
  "source": "patent US10273211B2",
  "about": "“Metabolites of N-{4-([6,7-bis(methyloxy)quinolin-4-yl]oxy}phenyl)-N′-(4-fluorophenyl)cyclopropane-1,1-dicarboxamide” (Exelixis, Inc., priority 2013, dated 2019)",
  "key": {"[1]": {"molecular_target": "Flt-4 (Homo sapiens (Human), UniProt P35916)", "experiment": "Kinase activity, EMD Millipore Kinase Profiler", "format": "biochemical", "details": "for inhibition at 1 µM: read-out: Flt-4 percent inhibition"}, "[2]": {"experiment": "Metabolite profiling of human plasma after [14C] cabozantinib (mass balance study)", "format": "in vivo", "details": "single 175 mg oral dose of cabozantinib (L-malate salt) with [14C] cabozantinib, HPLC Method 1", "procedure": "(§1) The objective of this study was to profile and identify metabolites of cabozantinib in human plasma, urine, and feces.\n(§2) The plasma, urine, and fecal samples were collected from the 8 subjects for the metabolite profiling.\n(§3) All samples were shipped to QPS LLC (Newark, Del.) and stored at −70° C. HPLC/tandem MS coupled with a radio flow-through detector (RFD) was used for metabolite profiling and identification for samples with sufficient levels of radioactivity.\n(§4) HPLC fraction collection followed by counting with TopCount NXT™ was used for radioquantitation of plasma samples with sufficient levels of radioactivity. […] HPLC Method 1 was used for the analysis of pooled urine and fecal samples and individual plasma samples from different time points. […] HPLC Method 3 was used for pooled plasma samples.\nFor the investigation of co-eluting metabolites, nonradiolabeled plasma samples of six subjects were pooled, processed, and analyzed for pre-dose, 1-7, 8-96, and 120-336 hours post-dose. […] [^14C]\nRadiolabeled and non-radiolabeled plasma samples were extracted employing the same method, using 1.0-2 mL plasma samples, depending on the volume available and radioactivity level of the samples. The supernatants were evaporated to dryness under a stream of nitrogen in an ambient water bath, and the residues were reconstituted in 0.35-0.5 mL of MeOH:ACN:water (10:20:70, v/v/v). The reconstituted samples were centrifuged at 15,000 rpm for 10 minutes. Aliquots of the supernatants were injected onto the HPLC system for analysis.\n(§5) The system for metabolite profiling and identification (HPLC/MS/RFD) consisted of a HTC PAL autosampler, a Surveyor HPLC pump, a LTQ linear ion trap mass spectrometer, and a β-RAM Model 3 RFD. The data obtained by mass spectrometry and RFD were processed by Xcalibur and Laura Lite 3 software, respectively. The HPLC eluent was split between the RFD and mass spectrometer with a ratio of 3 to 1. The following are the summary of the conditions for HPLC, mass spectrometer, and RFD.\nMass spectra (MS, MS/MS, and MS/MS/MS) of cabozantinib and its metabolite standards, provided by the Exelixis, Inc., were acquired on an ion trap mass spectrometer. Major fragment patterns were proposed. Identification of these metabolites was confirmed by matching mass spectra (MS and MS/MS) and retention times with authentic reference standards. For other unknown metabolites, molecular ions were searched on LC/MS chromatograms operating in full scan positive as well as negative ionization modes at the same retention times as those found on LC-radio chromatogram. […]\nFor plasma samples, percent of total radioactivity in the sample for each peak at each time point was calculated and converted to ng/mL."}, "[3]": {"experiment": "Metabolite profiling of human feces after [14C] cabozantinib (mass balance study)", "format": "in vivo", "details": "single 175 mg oral dose", "procedure": "as §1, §2, §3, §4\nThe supernatants were dried under a nitrogen stream, and the residues were reconstituted in water:ACN:FA (80:20:0.1, v/v/v). The reconstituted samples were centrifuged at 15,000 rpm for 10 min before analysis.\nas §5\n(§6) Mass spectra (MS, MS/MS, and MS/MS/MS) of cabozantinib and its metabolite standards, provided by the Exelixis, Inc., were acquired on an ion trap mass spectrometer. Major fragment patterns were proposed. Identification of these metabolites was confirmed by matching mass spectra (MS and MS/MS) and retention times with authentic reference standards. For other unknown metabolites, molecular ions were searched on LC/MS chromatograms operating in full scan positive as well as negative ionization modes at the same retention times as those found on LC-radio chromatogram. Product ion mass spectra and high resolution mass spectra were then acquired for the corresponding molecular ions. Putative metabolite structures were proposed based on the analysis of their mass fragment patterns.\nFor the pooled fecal samples, percent of total radioactivity in the pooled sample for each peak was calculated as the percent of total non-parent plus parent in the pooled samples: % of total non-parent plus parent in the pooled samples=(total radioactivity of the peak/total radioactivity of the parent and non-parent peaks)×100"}, "[4]": {"experiment": "Metabolite profiling of human urine after [14C] cabozantinib (mass balance study)", "format": "in vivo", "details": "single 175 mg oral dose; for presence in pooled urine sample: human urine", "procedure": "as §1, §2, §3, §4\nThe radioactivity in pooled urine and reconstituted solution was counted using LSC, and the reconstitution recovery calculated. […] Each pooled urine sample was lyophilized, the residue was reconstituted in water:ACN:FA (80:20:0.1, v/v/v), and the reconstituted sample was centrifuged at 15,000 rpm for 10 min before analysis.\nas §5, §6\nFor the pooled urine samples, percent of total radioactivity in the pooled sample for each peak was calculated as the % of total non-parent in the pooled samples: % of total non-parent in the pooled samples=(total radioactivity of the peak/total radioactivity of the non-parent peaks)×100"}, "[5]": {"molecular_target": "KDR (Homo sapiens (Human), UniProt P35968)", "sequence (P35968 20-1356)": "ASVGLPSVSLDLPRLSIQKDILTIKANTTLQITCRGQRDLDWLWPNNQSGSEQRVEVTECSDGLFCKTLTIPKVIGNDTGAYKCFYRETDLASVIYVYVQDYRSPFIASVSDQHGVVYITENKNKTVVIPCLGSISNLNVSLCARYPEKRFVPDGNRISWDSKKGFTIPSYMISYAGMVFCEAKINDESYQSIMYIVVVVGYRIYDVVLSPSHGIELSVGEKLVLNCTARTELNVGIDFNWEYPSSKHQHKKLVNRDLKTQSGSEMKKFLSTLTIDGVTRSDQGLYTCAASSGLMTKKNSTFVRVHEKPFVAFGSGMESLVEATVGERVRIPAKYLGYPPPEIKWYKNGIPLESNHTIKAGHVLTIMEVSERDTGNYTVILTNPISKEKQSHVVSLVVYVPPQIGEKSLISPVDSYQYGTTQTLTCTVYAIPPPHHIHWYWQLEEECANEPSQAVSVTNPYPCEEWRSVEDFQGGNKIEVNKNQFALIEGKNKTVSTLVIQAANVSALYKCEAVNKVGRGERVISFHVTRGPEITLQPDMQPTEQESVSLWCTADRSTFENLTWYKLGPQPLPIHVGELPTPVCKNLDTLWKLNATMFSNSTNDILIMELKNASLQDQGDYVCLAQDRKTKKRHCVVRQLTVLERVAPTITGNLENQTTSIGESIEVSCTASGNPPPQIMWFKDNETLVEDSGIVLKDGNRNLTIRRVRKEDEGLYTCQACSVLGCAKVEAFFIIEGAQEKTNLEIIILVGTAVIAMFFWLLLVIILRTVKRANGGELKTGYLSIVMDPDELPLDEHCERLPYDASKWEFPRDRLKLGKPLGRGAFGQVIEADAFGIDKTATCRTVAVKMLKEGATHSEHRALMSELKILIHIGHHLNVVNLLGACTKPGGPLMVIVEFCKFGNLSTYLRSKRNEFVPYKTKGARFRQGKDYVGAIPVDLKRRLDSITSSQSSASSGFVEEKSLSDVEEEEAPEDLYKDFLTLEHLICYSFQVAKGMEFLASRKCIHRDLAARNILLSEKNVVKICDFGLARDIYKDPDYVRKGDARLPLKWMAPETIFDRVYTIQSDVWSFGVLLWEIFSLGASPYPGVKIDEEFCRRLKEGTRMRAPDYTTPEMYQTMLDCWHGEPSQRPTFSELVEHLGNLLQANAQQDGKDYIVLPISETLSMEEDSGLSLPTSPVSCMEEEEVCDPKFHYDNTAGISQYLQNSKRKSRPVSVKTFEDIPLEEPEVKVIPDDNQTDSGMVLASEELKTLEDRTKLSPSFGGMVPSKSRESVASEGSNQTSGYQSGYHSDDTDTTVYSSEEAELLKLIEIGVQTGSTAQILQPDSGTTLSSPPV", "experiment": "Kinase activity, EMD Millipore Kinase Profiler", "format": "biochemical", "details": "for inhibition at 1 µM: read-out: KDR percent inhibition; for IC50: read-out: KDR Std (IC50)"}, "[6]": {"molecular_target": "RET (Homo sapiens (Human), UniProt P07949)", "sequence (P07949 29-1114)": "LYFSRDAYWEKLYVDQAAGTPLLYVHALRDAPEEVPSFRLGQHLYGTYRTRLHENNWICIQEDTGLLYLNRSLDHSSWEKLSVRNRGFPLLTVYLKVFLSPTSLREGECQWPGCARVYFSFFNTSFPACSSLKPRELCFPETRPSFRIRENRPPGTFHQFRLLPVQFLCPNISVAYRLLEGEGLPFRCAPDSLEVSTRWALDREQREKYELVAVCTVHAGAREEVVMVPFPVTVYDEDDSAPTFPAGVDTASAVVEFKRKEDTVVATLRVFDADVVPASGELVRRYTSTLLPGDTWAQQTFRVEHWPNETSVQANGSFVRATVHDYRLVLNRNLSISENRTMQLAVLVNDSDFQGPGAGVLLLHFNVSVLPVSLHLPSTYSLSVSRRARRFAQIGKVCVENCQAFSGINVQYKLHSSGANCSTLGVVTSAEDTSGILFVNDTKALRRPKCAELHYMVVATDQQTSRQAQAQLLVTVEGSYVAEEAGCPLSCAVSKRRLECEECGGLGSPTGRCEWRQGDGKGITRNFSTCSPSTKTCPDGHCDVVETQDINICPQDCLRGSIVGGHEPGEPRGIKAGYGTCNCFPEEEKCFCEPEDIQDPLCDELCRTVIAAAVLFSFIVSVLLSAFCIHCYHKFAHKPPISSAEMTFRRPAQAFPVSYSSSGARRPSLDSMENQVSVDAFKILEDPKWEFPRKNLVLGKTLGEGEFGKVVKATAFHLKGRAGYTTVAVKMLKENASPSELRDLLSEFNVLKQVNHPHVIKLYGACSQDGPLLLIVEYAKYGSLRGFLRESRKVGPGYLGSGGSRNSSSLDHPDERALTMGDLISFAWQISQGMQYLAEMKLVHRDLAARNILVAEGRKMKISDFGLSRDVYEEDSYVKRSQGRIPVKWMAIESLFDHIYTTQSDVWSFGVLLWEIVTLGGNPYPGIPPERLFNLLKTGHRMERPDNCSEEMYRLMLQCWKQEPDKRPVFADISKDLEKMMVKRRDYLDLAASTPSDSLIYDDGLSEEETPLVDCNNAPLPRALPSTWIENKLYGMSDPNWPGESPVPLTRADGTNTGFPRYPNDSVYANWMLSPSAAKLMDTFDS", "experiment": "Kinase activity, EMD Millipore Kinase Profiler", "format": "biochemical", "details": "read-out: RET percent inhibition"}, "[7]": {"molecular_target": "Aurora B MP (Homo sapiens (Human), UniProt Q96GD4)", "sequence (Q96GD4 whole entry)": "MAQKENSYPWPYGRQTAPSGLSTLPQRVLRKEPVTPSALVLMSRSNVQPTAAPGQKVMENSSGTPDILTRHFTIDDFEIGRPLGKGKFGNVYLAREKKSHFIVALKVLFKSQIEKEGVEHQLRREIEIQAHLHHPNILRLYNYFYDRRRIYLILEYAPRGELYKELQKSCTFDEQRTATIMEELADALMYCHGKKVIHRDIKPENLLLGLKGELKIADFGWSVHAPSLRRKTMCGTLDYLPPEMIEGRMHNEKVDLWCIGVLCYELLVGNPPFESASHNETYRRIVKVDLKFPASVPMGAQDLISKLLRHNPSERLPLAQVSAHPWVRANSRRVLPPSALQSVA", "experiment": "Kinase activity, EMD Millipore Kinase Profiler", "format": "biochemical", "details": "for inhibition at 1 µM: read-out: Aurora B MP percent inhibition; for IC50: read-out: Aurora B MP 8pt Std (IC50)"}, "[8]": {"molecular_target": "Flt-1 Alpha (Homo sapiens (Human), UniProt P17948)", "sequence (P17948 27-1338)": "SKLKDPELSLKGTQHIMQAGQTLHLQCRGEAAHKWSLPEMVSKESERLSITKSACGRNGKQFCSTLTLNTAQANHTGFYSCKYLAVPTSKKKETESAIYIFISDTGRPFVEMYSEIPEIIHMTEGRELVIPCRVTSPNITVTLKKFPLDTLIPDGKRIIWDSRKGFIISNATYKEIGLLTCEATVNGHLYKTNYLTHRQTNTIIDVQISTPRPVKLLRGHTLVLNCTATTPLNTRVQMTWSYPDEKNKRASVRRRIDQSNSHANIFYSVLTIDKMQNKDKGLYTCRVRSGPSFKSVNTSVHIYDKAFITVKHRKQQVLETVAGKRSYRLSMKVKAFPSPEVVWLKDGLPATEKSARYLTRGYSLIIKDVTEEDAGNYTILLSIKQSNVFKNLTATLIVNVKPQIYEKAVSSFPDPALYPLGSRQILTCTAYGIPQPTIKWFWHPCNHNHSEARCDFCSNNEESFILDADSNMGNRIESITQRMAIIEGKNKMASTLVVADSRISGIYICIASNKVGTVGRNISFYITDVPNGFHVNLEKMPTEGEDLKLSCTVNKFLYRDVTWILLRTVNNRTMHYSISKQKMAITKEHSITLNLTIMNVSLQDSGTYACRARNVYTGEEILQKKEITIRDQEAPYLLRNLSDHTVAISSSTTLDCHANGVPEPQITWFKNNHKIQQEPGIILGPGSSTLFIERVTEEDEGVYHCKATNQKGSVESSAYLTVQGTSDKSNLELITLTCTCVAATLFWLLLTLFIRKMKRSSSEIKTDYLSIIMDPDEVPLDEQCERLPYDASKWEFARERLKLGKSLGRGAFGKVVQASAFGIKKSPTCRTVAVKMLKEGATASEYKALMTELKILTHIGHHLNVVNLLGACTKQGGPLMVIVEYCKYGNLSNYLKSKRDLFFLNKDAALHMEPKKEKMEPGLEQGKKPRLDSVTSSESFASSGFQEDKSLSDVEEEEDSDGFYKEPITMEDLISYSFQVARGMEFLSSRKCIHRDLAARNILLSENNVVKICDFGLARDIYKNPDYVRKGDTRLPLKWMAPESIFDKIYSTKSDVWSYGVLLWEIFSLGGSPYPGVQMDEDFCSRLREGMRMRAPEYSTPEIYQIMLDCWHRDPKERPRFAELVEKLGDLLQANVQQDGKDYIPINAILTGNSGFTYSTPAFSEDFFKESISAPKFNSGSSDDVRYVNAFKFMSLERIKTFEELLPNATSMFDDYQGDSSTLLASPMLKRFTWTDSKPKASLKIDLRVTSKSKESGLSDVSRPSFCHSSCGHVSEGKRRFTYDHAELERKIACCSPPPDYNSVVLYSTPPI", "experiment": "Kinase activity, EMD Millipore Kinase Profiler", "details": "for inhibition at 1 µM: read-out: Flt-1 Alpha percent inhibition"}, "[9]": {"molecular_target": "c-Met (Homo sapiens (Human), UniProt P08581)", "experiment": "Kinase activity, EMD Millipore Kinase Profiler", "format": "biochemical", "details": "for inhibition at 1 µM: read-out: c-Met percent inhibition; for IC50: read-out: c-Met Std (IC50)"}, "[10]": {"molecular_target": "Flt-3 (Homo sapiens (Human), UniProt P36888)", "sequence (P36888 27-993)": "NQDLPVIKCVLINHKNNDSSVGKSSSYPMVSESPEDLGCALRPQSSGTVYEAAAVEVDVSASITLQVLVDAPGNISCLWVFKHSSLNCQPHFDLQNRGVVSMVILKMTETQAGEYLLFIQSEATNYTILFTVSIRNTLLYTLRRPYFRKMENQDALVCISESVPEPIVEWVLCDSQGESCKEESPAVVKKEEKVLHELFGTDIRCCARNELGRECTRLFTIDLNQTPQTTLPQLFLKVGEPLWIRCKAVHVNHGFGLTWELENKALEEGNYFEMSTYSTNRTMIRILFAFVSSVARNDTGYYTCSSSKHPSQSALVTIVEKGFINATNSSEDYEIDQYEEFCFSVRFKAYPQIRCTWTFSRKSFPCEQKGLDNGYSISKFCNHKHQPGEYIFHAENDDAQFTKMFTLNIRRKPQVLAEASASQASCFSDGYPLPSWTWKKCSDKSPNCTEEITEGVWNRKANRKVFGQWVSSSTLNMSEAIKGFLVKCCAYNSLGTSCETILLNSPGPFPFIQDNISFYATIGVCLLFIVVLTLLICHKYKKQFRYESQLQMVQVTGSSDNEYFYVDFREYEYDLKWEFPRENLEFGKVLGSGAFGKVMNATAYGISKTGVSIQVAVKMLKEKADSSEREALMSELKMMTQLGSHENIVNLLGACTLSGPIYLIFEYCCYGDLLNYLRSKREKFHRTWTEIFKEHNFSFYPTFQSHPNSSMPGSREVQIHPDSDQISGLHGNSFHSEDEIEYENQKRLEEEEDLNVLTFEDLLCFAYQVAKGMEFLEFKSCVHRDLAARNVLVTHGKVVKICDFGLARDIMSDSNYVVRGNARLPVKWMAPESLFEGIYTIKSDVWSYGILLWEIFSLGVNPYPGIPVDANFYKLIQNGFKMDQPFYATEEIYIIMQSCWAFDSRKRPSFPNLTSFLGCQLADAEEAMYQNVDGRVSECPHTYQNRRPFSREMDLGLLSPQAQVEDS", "experiment": "Kinase activity, EMD Millipore Kinase Profiler", "format": "biochemical", "details": "for inhibition at 1 µM: read-out: Flt-3 percent inhibition; for IC50: read-out: Flt-3 Std (IC50)"}},
  "data": [
    {"smiles": "COc1cc2nccc(Oc3ccc(NC(=O)C4(C(=O)Nc5ccc(F)cc5)CC4)cc3)c2cc1OC", "note": "[Cabozantinib, N-(4-{[6,7-bis(methyloxy)quinolin-4-yl]oxy}phenyl)-N′-(4-fluorophenyl)cyclopropane-1,1-dicarboxamide, reference compound]", "values": [
      {"measurement": "IC50", "setting": "[1]; read-out: Flt-4 Std (IC50)", "result": "< 50", "unit": "nM"},
      {"measurement": "peak on plasma radio-chromatograms", "setting": "[2]", "result": "major peaks"},
      {"measurement": "presence in pooled fecal sample", "setting": "[3]; 0-72 hours post dose", "result": "observed"},
      {"measurement": "presence in urine samples", "setting": "[4]; human urine samples, all intervals", "result": "not observed"}
    ]},
    {"smiles": "COc1cc2nccc(Oc3ccc(NC(=O)C4(C(=O)O)CC4)cc3)c2cc1OS(=O)(=O)O", "note": "[Compound 2a]", "values": [
      {"measurement": "inhibition at 1 µM", "setting": "[1]", "result": "≥ 25", "unit": "%"},
      {"measurement": "inhibition at 1 µM", "setting": "[5]", "result": "≤ 25", "unit": "%"},
      {"measurement": "inhibition at 1 µM", "setting": "[6]", "result": "≤ 25", "unit": "%"},
      {"measurement": "inhibition at 1 µM", "setting": "[7]", "result": "≤ 25", "unit": "%"},
      {"measurement": "inhibition at 1 µM", "setting": "[8]", "result": "≤ 25", "unit": "%"},
      {"measurement": "inhibition at 1 µM", "setting": "[9]", "result": "≥ 50", "unit": "%"},
      {"measurement": "inhibition at 1 µM", "setting": "[10]", "result": "≤ 25", "unit": "%"}
    ]},
    {"smiles": "COc1cc2nccc(Oc3ccc(NC(=O)C4(C(=O)O)CC4)cc3)c2cc1OC", "note": "[Compound 7, 1-[4-(6,7-Dimethoxy-quinolin-4-yloxy)-phenylcarbamoyl]-cyclopropane carboxylic acid]", "values": [
      {"measurement": "IC50", "setting": "[5]", "result": "> 5000", "unit": "nM"},
      {"measurement": "IC50", "setting": "[7]", "result": "500 to 5000", "unit": "nM"},
      {"measurement": "peak on plasma radio-chromatograms", "setting": "[2]", "result": "one of the minor peaks"},
      {"measurement": "IC50", "setting": "[9]", "result": "> 5000", "unit": "nM"},
      {"measurement": "IC50", "setting": "[10]", "result": "500 to 5000", "unit": "nM"},
      {"measurement": "presence in pooled fecal sample", "setting": "[3]; 0-72 hours post dose", "result": "observed"},
      {"measurement": "presence in pooled fecal sample", "setting": "[3]; 144-192 hours post dose", "result": "observed"},
      {"measurement": "presence in pooled urine sample", "setting": "[4]; 0-72 hours post dose", "result": "observed"},
      {"measurement": "presence in pooled urine sample", "setting": "[4]; 144-192 hours post dose", "result": "observed"}
    ]},
    {"smiles": "COc1cc2nccc(Oc3ccc(NC(=O)C4(C(=O)Nc5ccc(F)cc5OS(=O)(=O)O)CC4)cc3)c2cc1OC", "note": "[Compound 9]", "values": [
      {"measurement": "inhibition at 1 µM", "setting": "[1]", "result": "≥ 75", "unit": "%"},
      {"measurement": "inhibition at 1 µM", "setting": "[5]", "result": "≤ 25", "unit": "%"},
      {"measurement": "inhibition at 1 µM", "setting": "[6]", "result": "≥ 75", "unit": "%"},
      {"measurement": "inhibition at 1 µM", "setting": "[7]", "result": "≥ 75", "unit": "%"},
      {"measurement": "inhibition at 1 µM", "setting": "[8]", "result": "≥ 50", "unit": "%"},
      {"measurement": "peak on plasma radio-chromatograms", "setting": "[2]", "result": "major peaks"},
      {"measurement": "inhibition at 1 µM", "setting": "[9]", "result": "≥ 75", "unit": "%"},
      {"measurement": "inhibition at 1 µM", "setting": "[10]", "result": "≥ 50", "unit": "%"}
    ]},
    {"smiles": "COc1cc2nccc(Oc3ccc(NC(=O)C4(C(=O)Nc5ccc(F)c(O)c5)CC4)cc3)c2cc1OC", "note": "[Compound 13]", "values": [
      {"measurement": "IC50", "setting": "[5]", "result": "< 50", "unit": "nM"},
      {"measurement": "IC50", "setting": "[7]", "result": "50 to 500", "unit": "nM"},
      {"measurement": "IC50", "setting": "[8]", "result": "500 to 5000", "unit": "nM"},
      {"measurement": "IC50", "setting": "[9]", "result": "< 50", "unit": "nM"},
      {"measurement": "IC50", "setting": "[10]", "result": "< 50", "unit": "nM"}
    ]},
    {"smiles": "COc1cc2nccc(Oc3ccc(NC(=O)C4(C(=O)Nc5ccc(F)cc5O)CC4)cc3)c2cc1OC", "note": "[Compound 16]", "values": [
      {"measurement": "IC50", "setting": "[5]", "result": "< 50", "unit": "nM"},
      {"measurement": "IC50", "setting": "[7]", "result": "50 to 500", "unit": "nM"},
      {"measurement": "IC50", "setting": "[8]", "result": "500 to 5000", "unit": "nM"},
      {"measurement": "IC50", "setting": "[9]", "result": "< 50", "unit": "nM"},
      {"measurement": "IC50", "setting": "[10]", "result": "< 50", "unit": "nM"},
      {"measurement": "presence in pooled fecal sample", "setting": "[3]; 0-72 hours post dose", "result": "observed"},
      {"measurement": "presence in pooled fecal sample", "setting": "[3]; 144-192 hours post dose", "result": "observed"}
    ]},
    {"smiles": "COc1cc2c(Oc3ccc(NC(=O)C4(C(=O)Nc5ccc(F)cc5)CC4)cc3)cc[n+]([O-])c2cc1OC", "note": "[Compound 19]", "values": [
      {"measurement": "peak on plasma radio-chromatograms", "setting": "[2]", "result": "major peaks"},
      {"measurement": "presence in pooled urine sample", "setting": "[4]; 0-72 hours post dose", "result": "observed"}
    ]}
  ]
}
